Results as given in ChEMBL document CHEMBL1146963, “Synthesis and biological evaluation of alpha-galactosylceramide (KRN7000) and isoglobotrihexosylceramide (iGb3)” (Bioorg Med Chem Lett, 2006).
The source made the active and inactive calls.

Legend:
Type in all cases: functional, cell-based
iNKT [1] = assay: Release of IL4 and IFN-gamma from human iNKT cells stimulated by C1R cell expressing human CD1d at 20 ug/ml
iNKT [2] = assay: Release of IL4 and IFN-gamma from human iNKT cells stimulated by C1R cell expressing human CD1d at 5 ug/ml
iNKT [3] = assay: Release of IL2 from mouse iNKT hybridoma stimulated by bone marrow-derived mouse DC at 0.2 ug/ml

Measured: Activity

CCCCCCCCCCCCC/C=C/[C@@H](O)[C@H](CO[C@@H]1O[C@H](CO)[C@@H](O[C@@H]2O[C@H](CO)[C@H](O)[C@H](O[C@H]3O[C@H](CO)[C@H](O)[C@H](O)[C@H]3O)[C@H]2O)[C@H](O)[C@H]1O)NC(=O)CCCCCCCCCCCCCCCCCCCCCCCCC
active: all assays above
